# Results taken from PubChem BioAssay AID256 (DTP/NCI, 2004).
# Where “and” joins values, the source holds several entries; their conditions need not be identical. Identical values can stand only once. Toxic doses and inconclusive results are not listed.
# Tested on: CD2F1 mice, L1210 leukemia ip, survival T/C
# Experiment: NCI In Vivo Anticancer Drug Screen. Data for tumor model L1210 Leukemia (intraperitoneal) in CD2F1 (CDF1) mice
# Settings: higher = longer survival
# How it was run: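 Compound-dosed mice with transplantable tumor versus matched vehicle controls; endpoint ratio T/C reported.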
# [1] = endpoint: mean survival time, dose: 100.0 mg/kg/injection, schedule: Q04DX003 (ip), vehicle: saline with Tween-80
# [2] = endpoint: mean survival time, dose: 200.0 mg/kg/injection, schedule: Q04DX003 (ip), vehicle: saline with Tween-80
# [3] = endpoint: mean survival time, dose: 400.0 mg/kg/injection, schedule: Q04DX003 (ip), vehicle: saline with Tween-80
# [4] = endpoint: mean survival time, dose: 100.0 mg/kg/injection, schedule: Q01DX001 (ip), vehicle: Klucel (hydroxypropylcellulose) (HPC)
# [5] = endpoint: mean survival time, dose: 400.0 mg/kg/injection, schedule: Q01DX009 (ip), vehicle: saline with Tween-80
# [6] = endpoint: mean survival time, dose: 50.0 mg/kg/injection, schedule: Q01DX009 (ip), vehicle: saline with Tween-80
# [7] = endpoint: mean survival time, dose: 100.0 mg/kg/injection, schedule: Q01DX009 (ip), vehicle: saline with Tween-80
# [8] = endpoint: mean survival time, dose: 200.0 mg/kg/injection, schedule: Q01DX009 (ip), vehicle: saline with Tween-80
structure (smiles),measurement,setting,value
O=C[C@@H](CO)O[C@H](C=O)c1c[nH]c(=O)[nH]c1=O,T/C,"endpoint: median survival time, dose: 2.5 mg/kg/injection, schedule: Q01DX009 (ip), vehicle: saline",118 % of control
same,T/C,"endpoint: median survival time, dose: 7.5 mg/kg/injection, schedule: Q04DX003 (ip), vehicle: saline",102 % of control
same,T/C,"endpoint: median survival time, dose: 12.5 mg/kg/injection, schedule: Q01DX009 (ip), vehicle: water",124 % of control
same,T/C,"endpoint: median survival time, dose: 15.0 mg/kg/injection, schedule: Q04DX003 (ip), vehicle: saline",102 % of control
same,T/C,"endpoint: median survival time, dose: 30.0 mg/kg/injection, schedule: Q04DX003 (ip), vehicle: saline",114 % of control
same,T/C,"endpoint: median survival time, dose: 40.0 mg/kg/injection, schedule: Q01DX009 (ip), vehicle: saline",158 % of control
same,T/C,"endpoint: median survival time, dose: 50.0 mg/kg/injection, schedule: Q01DX009 (ip), vehicle: saline",158 % of control
same,T/C,"endpoint: median survival time, dose: 54.0 mg/kg/injection, schedule: Q04DX003 (ip), vehicle: saline",156 % of control
same,T/C,"endpoint: median survival time, dose: 60.0 mg/kg/injection, schedule: Q04DX003 (ip), vehicle: saline",119 % of control
same,T/C,"endpoint: median survival time, dose: 66.7 mg/kg/injection, schedule: Q04DX003 (ip), vehicle: saline",151 % of control
same,T/C,"endpoint: median survival time, dose: 90.0 mg/kg/injection, schedule: Q04DX003 (ip), vehicle: saline",178 % of control
same,T/C,"endpoint: median survival time, dose: 100.0 mg/kg/injection, schedule: Q01DX009 (ip), vehicle: water",89 % of control
same,T/C,"endpoint: median survival time, dose: 100.5 mg/kg/injection, schedule: Q04DX003 (ip), vehicle: saline",164 % of control
same,T/C,"endpoint: median survival time, dose: 105.0 mg/kg/injection, schedule: Q04DX003 (ip), vehicle: saline",229 % of control
same,T/C,"endpoint: median survival time, dose: 120.0 mg/kg/injection, schedule: Q04DX003 (ip), vehicle: saline",175 % of control and 184 % of control
same,T/C,"endpoint: median survival time, dose: 135.0 mg/kg/injection, schedule: Q04DX003 (ip), vehicle: saline",164 % of control
same,T/C,"endpoint: median survival time, dose: 165.0 mg/kg/injection, schedule: Q04DX003 (ip), vehicle: saline",625 % of control
same,T/C,"endpoint: median survival time, dose: 180.0 mg/kg/injection, schedule: Q04DX003 (ip), vehicle: saline",218 % of control and 228 % of control
same,T/C,"endpoint: median survival time, dose: 224.9 mg/kg/injection, schedule: Q04DX003 (ip), vehicle: saline",202 % of control
O=C(O)COc1ccc(-c2ccccc2)cc1,T/C,[1],104 % of control
same,T/C,[2],90 % of control
same,T/C,[3],101 % of control
COc1ccc(NC2=C(C)C(=O)C3=C(C2=O)[C@H](COC(N)=O)[C@]2(OC)[C@@H]4N[C@@H]4CN32)cc1,T/C,"endpoint: mean survival time, dose: 1.5 mg/kg/injection, schedule: Q01DX001 (ip), vehicle: water",107 % of control
same,T/C,"endpoint: mean survival time, dose: 3.0 mg/kg/injection, schedule: Q01DX001 (ip), vehicle: water",118 % of control and 110 % of control
same,T/C,"endpoint: mean survival time, dose: 6.0 mg/kg/injection, schedule: Q01DX001 (ip), vehicle: water",117 % of control and 111 % of control
same,T/C,"endpoint: mean survival time, dose: 12.0 mg/kg/injection, schedule: Q01DX001 (ip), vehicle: water",124 % of control
same,T/C,"endpoint: mean survival time, dose: 24.0 mg/kg/injection, schedule: Q01DX001 (ip), vehicle: water",153 % of control
same,T/C,"endpoint: mean survival time, dose: 48.0 mg/kg/injection, schedule: Q01DX001 (ip), vehicle: water",124 % of control
C1CCC2(CC1)NCCO2,T/C,"endpoint: mean survival time, dose: 100.0 mg/kg/injection, schedule: Q01DX009 (ip), vehicle: saline sonified",96 % of control
same,T/C,"endpoint: mean survival time, dose: 200.0 mg/kg/injection, schedule: Q01DX009 (ip), vehicle: saline sonified",93 % of control
COc1ccc2c(ccc3nc(C)[nH]c(=O)c32)c1,T/C,"endpoint: mean survival time, dose: 25.0 mg/kg/injection, schedule: Q01DX001 (ip), vehicle: Klucel (hydroxypropylcellulose) (HPC)",102 % of control
same,T/C,"endpoint: mean survival time, dose: 50.0 mg/kg/injection, schedule: Q01DX001 (ip), vehicle: Klucel (hydroxypropylcellulose) (HPC)",94 % of control
same,T/C,[4],90 % of control
CC(C#N)(Nc1ccccc1)c1ccccn1 (stereo not given),T/C,[1],101 % of control
same,T/C,[2],93 % of control
same,T/C,[3],89 % of control
CCOC(=O)NC(C#N)=C(Cl)Cl,T/C,"endpoint: mean survival time, dose: 100.0 mg/kg/injection, schedule: Q04DX002 (ip), vehicle: saline with Tween-80",114 % of control
same,T/C,"endpoint: mean survival time, dose: 200.0 mg/kg/injection, schedule: Q04DX002 (ip), vehicle: saline with Tween-80",88 % of control
same,T/C,"endpoint: mean survival time, dose: 400.0 mg/kg/injection, schedule: Q04DX002 (ip), vehicle: saline with Tween-80",100 % of control
CC(=O)OC1C=CS(=O)(=O)C1 (stereo not given),T/C,[1],108 % of control
same,T/C,[2],103 % of control
same,T/C,[3],105 % of control
CCC1(CC)OC2=C(CC(C#N)(C#N)C(C#N)(C#N)C2)O1,T/C,"endpoint: mean survival time, dose: 5.0 mg/kg/injection, schedule: Q04DX003 (ip), vehicle: other",103 % of control
same,T/C,"endpoint: mean survival time, dose: 10.0 mg/kg/injection, schedule: Q04DX003 (ip), vehicle: other",92 % of control
same,T/C,"endpoint: mean survival time, dose: 20.0 mg/kg/injection, schedule: Q04DX003 (ip), vehicle: other",96 % of control
c1ccc2cc(-c3cc4ccccc4s3)ccc2c1,T/C,"endpoint: mean survival time, dose: 264.0 mg/kg/injection, schedule: Q01DX009 (ip), vehicle: saline with Tween-80",104 % of control
same,T/C,[5],98 % of control
O=C(Nc1ccccc1)Nc1ccc(N(CCCl)CCCl)cc1,T/C,[4],105 % of control
same,T/C,"endpoint: mean survival time, dose: 200.0 mg/kg/injection, schedule: Q01DX001 (ip), vehicle: Klucel (hydroxypropylcellulose) (HPC)",108 % of control
same,T/C,"endpoint: mean survival time, dose: 400.0 mg/kg/injection, schedule: Q01DX001 (ip), vehicle: Klucel (hydroxypropylcellulose) (HPC)",114 % of control
O=P(Oc1ccc(OP(=O)(N2CC2)N2CC2)cc1)(N1CC1)N1CC1,T/C,"endpoint: mean survival time, dose: 58.0 mg/kg/injection, schedule: Q01DX001 (ip), vehicle: saline",119 % of control
same,T/C,"endpoint: mean survival time, dose: 133.0 mg/kg/injection, schedule: Q01DX001 (ip), vehicle: saline",152 % of control
same,T/C,"endpoint: mean survival time, dose: 200.0 mg/kg/injection, schedule: Q01DX001 (ip), vehicle: saline",179 % of control
same,T/C,"endpoint: mean survival time, dose: 300.0 mg/kg/injection, schedule: Q01DX001 (ip), vehicle: saline",89 % of control
CC1(C)C=Cc2ccccc21,T/C,[6],113 % of control
same,T/C,[7],113 % of control
N#CC1(NC(=O)N(CCCl)N=O)CCCCC1,T/C,"endpoint: mean survival time, dose: 6.25 mg/kg/injection, schedule: Q01DX001 (ip), vehicle: distilled water + Tween-80",119 % of control and 108 % of control
same,T/C,"endpoint: mean survival time, dose: 25.0 mg/kg/injection, schedule: Q01DX001 (ip), vehicle: distilled water + Tween-80",150 % of control
same,T/C,"endpoint: mean survival time, dose: 50.0 mg/kg/injection, schedule: Q01DX001 (ip), vehicle: distilled water + Tween-80",172 % of control and 258 % of control
O=C(O)CC(Sc1ccccc1)c1ccccc1 (stereo not given),T/C,"endpoint: mean survival time, dose: 100.0 mg/kg/injection, schedule: Q04DX003 (ip), vehicle: other",97 % of control
same,T/C,"endpoint: mean survival time, dose: 200.0 mg/kg/injection, schedule: Q04DX003 (ip), vehicle: other",101 % of control
C=CCNS(=O)(=O)c1ccc(C)cc1,T/C,[7],93 % of control
same,T/C,[1],98 % of control
same,T/C,[8],100 % of control
same,T/C,[2],98 % of control
same,T/C,[5],90 % of control
same,T/C,[3],94 % of control
CCCC[PH+](CCCC)CCCC.CCCC[PH+](CCCC)CCCC.O=[N+]([O-])O.O=[N+]([O-])O.[Ni],T/C,"endpoint: mean survival time, dose: 50.0 mg/kg/injection, schedule: Q04DX002 (ip), vehicle: saline with Tween-80",92 % of control
CCn1c(C)[n+](CC)c2ccc(C(C)=O)cc21,T/C,"endpoint: mean survival time, dose: 25.0 mg/kg/injection, schedule: Q04DX003 (ip), vehicle: saline",104 % of control
same,T/C,"endpoint: mean survival time, dose: 50.0 mg/kg/injection, schedule: Q04DX003 (ip), vehicle: saline",108 % of control
same,T/C,"endpoint: mean survival time, dose: 100.0 mg/kg/injection, schedule: Q04DX003 (ip), vehicle: saline",106 % of control
O=C(CSC1=NCCN1)c1ccc([N+](=O)[O-])cc1,T/C,"endpoint: mean survival time, dose: 25.0 mg/kg/injection, schedule: Q04DX003 (ip), vehicle: saline with Tween-80",94 % of control
same,T/C,"endpoint: mean survival time, dose: 50.0 mg/kg/injection, schedule: Q04DX003 (ip), vehicle: saline with Tween-80",93 % of control
same,T/C,[1],93 % of control
CN(CCC#N)C1=CCCC1,T/C,"endpoint: mean survival time, dose: 100.0 mg/kg/injection, schedule: Q01DX009 (ip), vehicle: saline",102 % of control
same,T/C,"endpoint: mean survival time, dose: 200.0 mg/kg/injection, schedule: Q01DX009 (ip), vehicle: saline",112 % of control
same,T/C,"endpoint: mean survival time, dose: 400.0 mg/kg/injection, schedule: Q01DX009 (ip), vehicle: saline",105 % of control
OCC1OC(c2nn(-c3ccccc3)[n+](-c3ccccc3)n2)C(O)C1O (stereo not given),T/C,"endpoint: mean survival time, dose: 12.5 mg/kg/injection, schedule: Q01DX005 (ip), vehicle: water",106 % of control
same,T/C,"endpoint: mean survival time, dose: 25.0 mg/kg/injection, schedule: Q01DX005 (ip), vehicle: water",97 % of control
same,T/C,"endpoint: mean survival time, dose: 50.0 mg/kg/injection, schedule: Q01DX005 (ip), vehicle: water",95 % of control
same,T/C,"endpoint: mean survival time, dose: 100.0 mg/kg/injection, schedule: Q01DX005 (ip), vehicle: water",106 % of control
same,T/C,"endpoint: mean survival time, dose: 200.0 mg/kg/injection, schedule: Q01DX005 (ip), vehicle: water",103 % of control
CN1C(=O)CN(CCN2CC(=O)N(c3ccccc3)C2=S)C1=S,T/C,[6],93 % of control
same,T/C,[7],93 % of control
same,T/C,[8],89 % of control
